Test results: publication PMC5247677 (Scientific Reports, 2017)
Read-outs that look alike come from different tables or passages of the source.

Key:
[1] = test system: noxious heat response in mice; assay: Hot plate test (50 °C), noxious heat; format: in vivo, mouse (C57BL/6 J); details: 30 mg/kg i.p., control 25.9 ± 1.8 s, P > 0.05, n = 6–16
[2] = test system: formalin-induced pain in mice; assay: Formalin-induced spontaneous pain behaviours; format: in vivo, mouse (C57BL/6 J)
Experimental: (§1) For behavioural assessment we used adult male C57BL/6 J mice or Sprague Dawley rats aged 5–8 weeks. Animals were housed in groups of 2–4 per cage, under 12 h light-dark cycles with standard rodent chow and water ad libitum. All assessments were performed by a blinded investigator unaware of the treatment each animal received. Ethical approval for in vivo experiments in animals was obtained from the University of Queensland, University of Sydney or United Kingdom Home Office animal ethics committee. Experiments involving animals were conducted in accordance with the International Association for the Study of Pain Guidelines for the Use of Animals in Research and the Australian Code of Practice for the Care and Use of Animals for Scientific Purposes, 8th edition (2013).
Formalin (1% v/v) was administered by i.pl injection in mice as previously described. […] Spontaneous pain behaviours were counted from video recordings. Phase I was defined as 0–10 min and Phase II defined as 10–55 min following formalin injection.

[3] = test system: carrageenan-induced mechanical allodynia in mice; assay: Carrageenan-induced mechanical allodynia (electronic von Frey); format: in vivo, mouse (C57BL/6 J)
Experimental: as §1
(§2) Carrageenan (1% w/v) was administered by i.pl injection in mice as previously described. Behavioural assessment was performed 3 h post-injection. […] Mechanical thresholds were determined using electronic von Frey (MouseMet Electronic von Frey, TopCat Metrology, UK) as previously described. Thermal thresholds were determined using the thermal probe test (MouseMet Thermal, TopCat Metrology) as described.

[4] = test system: carrageenan-induced thermal allodynia in mice; assay: Carrageenan-induced thermal allodynia (thermal probe test); format: in vivo, mouse (C57BL/6 J); details: P > 0.05
Experimental: as §1, §2

NaV1.7 [5] = details: 30 mg/kg; cited from earlier work
NaV1.7 [6] = details: cited from earlier work
From the text: In general, spider venom-derived peptides bind to the voltage-sensing domains of NaV channels to modify gating associated with channel activation and inactivation.

[7] = cited from earlier work
From the text: (§3) However, while NaV1.7 is expressed on axons, it is unlikely to have a major role in action potential propagation, given it has slow recovery from fast inactiv ...

rat NaV1.7 channel = details: cited from earlier work
[8] = test system: inflammatory pain in rodents; details: rodent model of inflammatory pain; cited from earlier work
From the text: as §3

[9] = test system: acute heat responses in mice; format: in vivo, mouse (C57BL/6 J); details: n = 6
Experimental: Paw-withdrawal latency in mice pre-administered phlotoxin 1 (i.p. 50 μg/kg; Venomtech, Valbonne, France), thiorphan (i.p. 20 mg/kg), buprenorphine (i.p. 50 μg/kg), or combinations, was determined using the Hargreaves apparatus (Plantar Analgesia Meter, IITC, CA, USA), with three withdrawal responses measured per animal.

NaV isoforms = details: up to 2 μM; cited from earlier work
[10] = test system: mice and human lacking functional NaV1.7; details: in vivo; cited from earlier work

Molecule: Cn1nccc1-c1ccccc1Oc1ccc(S(=O)(=O)Nc2nccs2)cc1C#N [PF-04856264]
- time to withdrawal, hot plate [1]: 30.7 ± 3.8 s
- formalin Phase I and Phase II pain behaviours ([2]; 30 mg/kg i.p., formalin 1% i.pl., P > 0.05, two-way ANOVA, n = 4–15): neither Pn3a (3 mg/kg i.p.) (Fig. 7d) or PF-04856264 (30 mg/kg ip.) (Figure 7e) significantly reduced Phase I or Phase II pain behaviours
- paw withdrawal force (PWF) ([3]; PF-04856264 30 mg/kg i.p., control 1.2 ± 0.2 g, P > 0.05, n = 4–12): 1.5 ± 0.3 g
- paw withdrawal temperature (PWT) ([4]; PF-04856264 30 mg/kg i.p., control 44.1 ± 0.5 °C, n = 4–12): 44.4 ± 1.2 °C
- efficacy in the OD1 model (NaV1.7 [5]): efficacy in the OD1 model at a dose of 30 mg/kg was previously reported
- state preference at NaV1.7 (NaV1.7 [6]): preferentially bind to the slow inactivated state
- blood-brain barrier penetration ([7]; expectation): unlikely to cross the blood-brain barrier
- potency at the rat NaV1.7 channel (rat NaV1.7 channel): low potency at the rat NaV1.7 channel

Molecule: Nc1[nH]ncc1-c1cc(Cl)ccc1Oc1cc(F)c(S(=O)(=O)Nc2cscn2)cc1Cl [PF-05089771]
- state preference at NaV1.7 (NaV1.7 [6]): preferentially bind to the slow inactivated state

Molecule: ProTx-II: NaV1.7 selective spider peptide from the venom of Thrixopelma pruriens
- onset of effect at NaV1.7 (NaV1.7 [6]): slow onset of effect
- plasma levels ([7]; rodent): plasma levels sufficient to inhibit NaV1.7 in vitro
- analgesic activity [8]: lack analgesic activity

Molecule: phlotoxin 1: previously characterized spider peptide NaV1.7 inhibitor
- time to withdrawal, acute heat ([9]; phlotoxin 1 50 μg/kg i.p., buprenorphine experiment, control 6.3 ± 0.5 s): 5.8 ± 0.7 s
- time to withdrawal, acute heat ([9]; phlotoxin 1 50 μg/kg i.p., thiorphan experiment, control 5.7 ± 0.9 s): 7.3 ± 0.9 s
- IC50 (NaV1.7 [6]): 260 nM
- effect on other NaV isoforms (NaV isoforms): no effect on other NaV isoforms

Molecule: O=C(O)CNC(=O)C(CS)Cc1ccccc1 (centres unmarked) [thiorphan]
- time to withdrawal, acute heat ([9]; thiorphan 20 mg/kg i.p., control 5.7 ± 0.9 s): 5.0 ± 0.4 s

Molecule: C=CCN1CC[C@]23c4c5ccc(O)c4O[C@H]2C(=O)CC[C@@]3(O)[C@H]1C5 [naloxone]
- reversal of analgesia [10]: substantially reverses analgesia

Molecule: COc1ccc2c3c1O[C@H]1C(=O)CC[C@@]4(O)[C@@H](C2)N(C)CC[C@]314 [oxycodone]
- pain behaviours, formalin Phase II ([2]; oxycodone 1 mg/kg i.p., control 227 ± 14, n = 7–11): 231 ± 22
- paw withdrawal force (PWF) ([3]; oxycodone 0.67 mg/kg i.p., control 1.2 ± 0.2 g, n = 4–12): 1.8 ± 0.2 g

Molecule: buprenorphine
- time to withdrawal, acute heat ([9]; buprenorphine 50 μg/kg i.p., control 6.3 ± 0.5 s): 7.2 ± 0.5 s

Molecule: NCC1(CC(=O)O)CCCCC1 [gabapentin]
- paw withdrawal force (PWF) ([3]; gabapentin 100 mg/kg i.p., control 1.1 ± 0.3 g, P > 0.05, n = 3–8): 1.1 ± 0.1 g
- paw withdrawal temperature (PWT) ([4]; gabapentin 100 mg/kg i.p., control 44.5 ± 0.9 °C, n = 3–8): 45.4 ± 0.5 °C
